We go through 52 molecules from the Deep4Chem optical property database.

This data set can be described thus: solvent given as SMILES.

With `CSc1sc(C(C)=O)c2nn[nH]c(=O)c12`, the fluorescence lifetime by setting is: (in C1CCOC1) 0.42 ns; (in CC#N) 0.75 ns; (in CCO) 0.41 ns; (in CN(C)C=O) 0.25 ns; (in CO) 0.33 ns; (in CS(C)=O) 0.15 ns. For `COc1cc2cc(OC)c(C#Cc3ccc([N+](=O)[O-])cc3)cc2cc1C#Cc1ccc([N+](=O)[O-])cc1`, the fluorescence lifetime is, setting by setting: (in C1CCOC1) 0.25 ns; (in ClC(Cl)Cl) 0.9 ns; (in ClCCl) 0.38 ns. For the molecule `COc1ccc2oc(=N)c(C#N)cc2c1`, the fluorescence lifetime (in ClCCl) turned out to be 1.6 ns. Turning to `COc1c2ccccc2c(OC)c2c1c1c(C)ccc(OC)c1n2C`, the fluorescence lifetime by setting is: (in C1CCCCC1) 17.6 ns; (in CC#N) 24.2 ns; (in CO) 21.5 ns; (in ClCCl) 17.6 ns.

With `COc1ccc(-c2csc(/C(C#N)=C/c3ccccc3Cl)n2)cc1`, where the note is “in CC#N”, the fluorescence lifetime came out at 3.93 ns. Take `CCCCCCOc1cc(C=C2C(=O)c3ccccc3C2=O)c(OCCCCCC)cc1C=C1C(=O)c2ccccc2C1=O`: under “in ClCCl”, the fluorescence lifetime is 5.4 ns. The molecule `c1cc2ccc3ccc(OP4(Oc5ccc6ccc7cccc8ccc5c6c78)=NP(Oc5ccc6ccc7cccc8ccc5c6c78)(Oc5ccc6ccc7cccc8ccc5c6c78)=NP(Oc5ccc6ccc7cccc8ccc5c6c78)(Oc5ccc6ccc7cccc8ccc5c6c78)=N4)c4ccc(c1)c2c34` registered a fluorescence lifetime (in ClCCl) of 2.5 ns. Take `O=C(O)c1ccc(C(=O)O)c2cc3ccccc3cc12`: the fluorescence lifetime runs as follows: (in C1CCOC1) 19.2 ns; (in CN(C)C=O) 12.5 ns. Take `O=C(O)CCCCCNC(=O)c1cccc2c(=O)c3ccccc3[nH]c12`: the fluorescence lifetime (in O) amounted to 4.2 ns. As for `CN(C)CCCN1c2ccccc2Sc2ccc(C(F)(F)F)cc21`, the fluorescence lifetime by setting is: (in CC#N) 2.66 ns; (in CO) 2.47 ns; (in O) 3.17 ns. For the molecule `CC1=[N+]2C(=C(c3ccc(N4CCOCC4)cc3)c3ccc(C)n3[B-]2(F)F)C=C1`, the fluorescence lifetime was found to be 2.15 ns (in C1CCCCC1) and 3.12 ns (in Cc1ccccc1).

In turn, `COc1c2ccccc2c(OC)c2c1c1cc(C)ccc1n2C` registered a fluorescence lifetime (in C1CCCCC1) of 24.6 ns, a fluorescence lifetime (in CC#N) of 31.1 ns, a fluorescence lifetime (in CO) of 29.8 ns and a fluorescence lifetime (in ClCCl) of 27.6 ns. For the molecule `COc1cc(/C=C/c2ccccc2)cc(OC)c1`, the fluorescence lifetime (in CC#N) worked out at 16.9 ns.

Molecule `F[B-]1(F)n2c(cc3c4ccccc4c4ccccc4c32)-c2ccc3ccccc3[n+]21` yielded a fluorescence lifetime (in ClCCl) of 4.89 ns. Take `CC(C)(C)c1cc2c3cc(C(C)(C)C)c(-c4cc5cc6c7cccc8cccc(c9cc(C(C)(C)C)cc(c5cc4C(C)(C)C)c96)c87)cc3cc3c4cccc5cccc(c(c1)c23)c54`: the fluorescence lifetime (in CC1CCCCC1) was 3.4 ns.

In turn, `CCOC(=O)c1ccc2c(c1)[nH]c1c3ccc(C(=O)OCC)cc3sc21` returned a fluorescence lifetime (in CCCO) of 2.6 ns. Regarding `COc1ccc(-c2c3ccccc3c(-c3ccc(OC)cc3)c3cc4ccccc4cc23)cc1`, the fluorescence lifetime (in ClCCl) was found to be 12.1 ns. For `CC1=[N+]2C(=C(c3ccc(C(=C(c4ccccc4)c4ccccc4)c4ccccc4)cc3)c3ccc(/C=C/c4ccc(C(=C(c5ccccc5)c5ccccc5)c5ccccc5)cc4)n3[B-]2(F)F)C=C1`, for the setting “in C1CCOC1”, the fluorescence lifetime is 3.5 ns. For `CCCCCCCCCCCCn1nnc(-c2ccc(C#Cc3ccc(C#Cc4ccc(-c5nnn(CCCCCCCCCCCC)n5)cc4)c4nc5c6ccccc6c6ccccc6c5nc34)cc2)n1`, the fluorescence lifetime runs as follows: (in C1CCOC1) 2.54 ns; (in Cc1ccccc1) 3.55 ns; (in ClCCl) 4.82 ns.

The molecule `Cc1ccccc1-c1ccccc1C` gave a fluorescence lifetime (in C1CCCCC1) of 2.5 ns. On to `CCOc1ccc2c(-c3nc(-c4ccccc4F)no3)cc(=O)oc2c1`, for which the fluorescence lifetime (in CCO) is 6.6 ns and the fluorescence lifetime (in ClC(Cl)Cl) was determined as 5.1 ns. For the molecule `C[Si](C)(C)c1ccc2ccc3c([Si](C)(C)C)ccc4ccc1c2c43`, the fluorescence lifetime by setting is: (in CCCCCC) 53.7 ns; (in CO) 71.8 ns; (in ClCCl) 65.5 ns. Molecule `O=S1(=O)c2ccccc2C2(c3cc(-c4ccc(-n5c6ccccc6c6ccccc65)cc4)ccc3-c3ccc(-c4ccc(-n5c6ccccc6c6ccccc65)cc4)cc32)c2ccccc21` showed a fluorescence lifetime (in ClCCl) of 0.9 ns. Same read-out and setting: as for `Cc1ccc(N(c2ccccc2)c2ccc3ccc4c(N(c5ccccc5)c5ccc(C)cc5)ccc5ccc2c3c54)cc1`, the figure is 6.2 ns. `c1ccc(-c2nc(-c3ccccc3)nc(-c3ccc(-n4c5ccccc5c5cc6c(cc54)c4ccccc4n6-c4ccccc4)cc3)n2)cc1` displayed a fluorescence lifetime (in O=P(c1ccccc1)(c1ccccc1)c1ccc2oc3ccc(P(=O)(c4ccccc4)c4ccccc4)cc3c2c1) of 13.4 ns. With `COC(=O)c1ccc(C2=C3C=CC(C)=[N+]3[B-](F)(F)n3c(C)ccc32)cc1`, the fluorescence lifetime is, setting by setting: (in C1CCCCC1) 0.54 ns; (in Cc1ccccc1) 0.82 ns.

The molecule `COc1ccc(C2=c3sc(-c4ccc(OC)cc4)c(-c4ccc(OC)cc4)c3=[N+]3C2=Nc2c(-c4ccc(OC)cc4)c4sc(-c5ccc(OC)cc5)c(-c5ccc(OC)cc5)c4n2[B-]3(F)F)cc1` returned a fluorescence lifetime (in ClC(Cl)Cl) of 1.53 ns.

Where the note is “in O=P(c1ccccc1)(c1ccccc1)c1ccccc1Oc1ccccc1P(=O)(c1ccccc1)c1ccccc1”, `c1ccc(-c2cc(-c3ccc(N4c5ccccc5C(c5ccccc5)(c5ccccc5)c5ccccc54)cc3)nc(-c3ccccc3)n2)cc1` displayed a fluorescence lifetime of 8.02 ns. Where the note is “in ClCCl”, `F[B-]1(F)OC(c2ccccc2)=Cc2cc3[n+](c[n+]21)[B-](F)(F)OC(c1ccccc1)=C3` came in with a fluorescence lifetime of 1.4 ns. As for `CN(C)c1ccc(/C=C/c2cc[n+](C)cc2)cc1`, under “in ClC(Cl)Cl”, the fluorescence lifetime turned out to be 0.153 ns. On to `C(=C\c1ccc(-n2c3ccccc3c3ccccc32)cc1)/c1ccc(-c2ccc(/C=C/c3ccc(-n4c5ccccc5c5ccccc54)cc3)cc2)cc1`, for which the fluorescence lifetime (in Cc1ccccc1) came out at 0.87 ns and the fluorescence lifetime (in c1ccc2c(c1)c1ccccc1n2-c1ccc(-c2ccc(-n3c4ccccc4c4ccccc43)cc2)cc1) came out at 1.3 ns. For `CCC(CC)COC1=CC2=C3c4cc(OCC(CC)CC)c(-c5cccs5)n4[B-](F)(F)[n+]4c3n(c3cc(C(C)(C)C)ccc34)[B-](F)(F)[N+]2=C1c1cccs1`, the fluorescence lifetime reads like this: (in C1CCOC1) 0.5 ns; (in ClCCl) 0.7 ns. Regarding `C/C=C/c1ccc(OC)c(OC)c1`, the fluorescence lifetime stood at 4 ns (in CC#N) and 3.7 ns (in CCCCCC). For `CCCCc1cc(CCCC)c2ccc3c(CCCC)cc(CCCC)c4ccc1c2c43`, the fluorescence lifetime was 65.8 ns (in CCCCCC), 75 ns (in CO) and 56.7 ns (in ClCCl). The molecule `COc1ccc(C2=Cc3cc4ccccc4cc3P2(=O)c2ccccc2)cc1` (configuration not stated) had a fluorescence lifetime (in ClCCl) of 3.8 ns.

As to `COc1ccccc1`, where the note is “in C1CCCCC1”, the fluorescence lifetime amounted to 11.1 ns. Regarding `COc1ccc(C2=C(c3ccc(OC)cc3)C(c3ccccc3)=[N+]3C2=Nc2c(-c4ccc(OC)cc4)c(-c4ccc(OC)cc4)c(-c4ccccc4)n2[B-]3(F)F)cc1`, the fluorescence lifetime (in Cc1ccccc1) was 0.08 ns. As to `O=C1c2ccc3c4c(Oc5ccccc5)cc5c6c(ccc(c7c(Oc8ccccc8)cc(c2c37)C(=O)N1c1ccc(O)cc1)c64)C(=O)N(c1ccc(O)cc1)C5=O`, the fluorescence lifetime runs as follows: (in C1CCOC1) 7.52 ns; (in CN1CCCC1=O) 1.62 ns; (in CN(C)C=O) 0.05 ns. Turning to `C(=C\c1cccc2ccccc12)/c1ccc(-c2nnc(-c3ccc(-c4cc5ccccc5s4)cc3)o2)cc1`, the fluorescence lifetime (in Cc1ccccc1) was 0.97 ns and the fluorescence lifetime (in ClC(Cl)Cl) worked out at 1.15 ns.

The molecule `Cc1ccc(-c2cnc3nn4ccccc4c3c2)cc1` showed a fluorescence lifetime (in C1CCOC1) of 4.6 ns.

As to `COC(=O)C(Cc1ccc2oc(-c3ccncc3)nc2c1)NC(=O)OC(C)(C)C` (configuration not stated), the fluorescence lifetime is 0.609 ns (in CC1CCCCC1), 1.19 ns (in CC#N) and 2.17 ns (in CO). Under “in ClCCl”, `C(#Cc1ccc(-n2c3ccccc3c3ccccc32)cc1)c1ccc(-c2nc(-c3ccc(C#Cc4ccc(-n5c6ccccc6c6ccccc65)cc4)cc3)nc(-c3ccc(C#Cc4ccc(-n5c6ccccc6c6ccccc65)cc4)cc3)n2)cc1` displayed a fluorescence lifetime of 4.16 ns.

Take `Cc1ccc(-n2c(C)ccc2C)cc1`: under “in CC#N”, the fluorescence lifetime stood at 4.4 ns.

Take `CC(=O)[B-]1(C(C)=O)OC(c2ccc3ccccc3c2)=CC(c2ccc3ccccc3c2)=[O+]1`: the fluorescence lifetime was determined as 5.5 ns (in CC#N) and 1.1 ns (in ClC(Cl)(Cl)Cl). For `CC(=O)[B-]1(C(C)=O)OC(C)=CC(c2ccc3ccccc3c2)=[O+]1`, in that order: 13.6 ns and 1.6 ns.

For the molecule `CCCCn1c2c(-c3ccc(N(c4ccccc4)c4ccccc4)cc3)cc(C#N)cc2c2cc(C#N)cc(-c3ccc(N(c4ccccc4)c4ccccc4)cc3)c21`, the fluorescence lifetime (in ClCCl) was determined as 2.29 ns.

`COC(=O)c1[nH]c(-c2ccc(Br)cc2)c2nnc3ccc(OC)cc3c12` yielded a fluorescence lifetime (in ClCCl) of 0.58 ns. Take `C(=C\c1nc(/C=C/c2ccc(-n3c4ccccc4c4ccccc43)cc2)nc(/C=C/c2ccc(-n3c4ccccc4c4ccccc43)cc2)n1)/c1ccc(-n2c3ccccc3c3ccccc32)cc1`: the fluorescence lifetime (in C1CCOC1) was 3.31 ns, the fluorescence lifetime (in CC#N) worked out at 2.03 ns, the fluorescence lifetime (in Cc1ccccc1) was 3.87 ns and the fluorescence lifetime (in ClCCl) is 4.03 ns.

In the case of `COc1ccc(C2=C3C(C)=CC(C)=[N+]3[B-](F)(F)n3c(/C=C/c4ccc(N(C)C)cc4)cc(C)c32)cc1`, the fluorescence lifetime reads like this: (in C1CCCCC1) 3.5 ns; (in C1CCOC1) 3 ns; (in C1COCCO1) 3.43 ns; (in CC#N) 1.2 ns; (in CC(C)=O) 2.23 ns; (in CCC#N) 1.84 ns. For the same molecule, the fluorescence lifetime turned out to be 2.26 ns (in CCCC#N); 2.45 ns (in CCCCO); 3.31 ns (in CCOC(C)=O); 3.74 ns (in CCOCC); 0.85 ns (in CO); 3.25 ns (in Cc1ccccc1). Besides, the fluorescence lifetime (in ClC(Cl)Cl) worked out at 3.47 ns. The molecule `c1ccc(/C(=C(\c2ccccc2)c2cc(-c3ccccc3)ccc2-c2ccccc2)c2cc(-c3ccccc3)ccc2-c2ccccc2)cc1` registered a fluorescence lifetime (in C1CCOC1) of 6.5 ns. Turning to `c1cc2c3c(c1)OCCCCCCCOc1cccc(c1-c1c4ccccc4c-3c3ccccc13)OCCCCCCCO2`, for the setting “in C1CCCCC1”, the fluorescence lifetime was 8.18 ns. The molecule `COC(=O)C12N=N[C@](C(=O)OC)(C3C4C=CC(C4)C31)[C@@H]1C[C@H]12` (some centres not stated) came in with a fluorescence lifetime (in CC#N) of 131 ns.
